US11154060B2, “Microbiocidal oxadiazole derivatives” (SYNGENTA PARTICIPATIONS AG, priority 2016, dated 2021)

How the values were obtained:
[1] = tested on: Uromyces viciae-fabae; assay: Uromyces viciae-fabae / field bean / leaf disc preventative (faba-bean rust); assay type: in vivo; conditions: foliar, 288 h, 100 ppm in the applied formulation, field bean leaf discs, inoculated two hours after application, 12 days after application, read-out: disease control compared to untreated control leaf discs
Procedure: Leaf disks or leaf segments of various plant species are cut from plants grown in a greenhouse. The cut leaf disks or segments are placed in multiwell plates (24-well format) onto water agar. The leaf disks are sprayed with a test solution before (preventative) or after (curative) inoculation. Compounds to be tested are prepared as DMSO solutions (max. 10 mg/ml) which are diluted to the appropriate concentration with 0.025% Tween20 just before spraying. The inoculated leaf disks or segments are incubated under defined conditions (temperature, relative humidity, light, etc.) according to the respective test system. A single evaluation of disease level is carried out 3 to 14 days after inoculation, depending on the pathosystem. Percent disease control relative to the untreated check leaf disks or segments is then calculated. Field bean leaf discs are placed on water agar in multiwell plates (96-well format) and 10 μl of the formulated test compound diluted in acetone and a spreader pipetted onto the leaf disc. Two hours after application leaf discs are inoculated by spraying a spore suspension on the lower leaf surface. The leaf discs are incubated in a climate cabinet at 22° C. with 18 hour day and 70% relative humidity. The activity of a compound is assessed as percent disease control compared to untreated when an appropriate level of disease damage appears in untreated check leaf disks (12 days after application).

[2] = tested on: Puccinia recondita f. sp. tritici; assay: Puccinia recondita f. sp. tritici / wheat / leaf disc preventative (brown rust); assay type: in vivo; conditions: foliar, wheat leaf segments cv. Kanzler, inoculated 1 day after application, assessed 7-9 days after application, read-out: control of Puccinia recondita f. sp. tritici compared to untreated control
Procedure: Leaf disks or leaf segments of various plant species are cut from plants grown in a greenhouse. The cut leaf disks or segments are placed in multiwell plates (24-well format) onto water agar. The leaf disks are sprayed with a test solution before (preventative) or after (curative) inoculation. Compounds to be tested are prepared as DMSO solutions (max. 10 mg/ml) which are diluted to the appropriate concentration with 0.025% Tween20 just before spraying. The inoculated leaf disks or segments are incubated under defined conditions (temperature, relative humidity, light, etc.) according to the respective test system. A single evaluation of disease level is carried out 3 to 14 days after inoculation, depending on the pathosystem. Percent disease control relative to the untreated check leaf disks or segments is then calculated. Wheat leaf segments cv. Kanzler are placed on agar in multiwell plates (24-well format) and sprayed with the formulated test compound diluted in water. The leaf disks are inoculated with a spore suspension of the fungus 1 day after application. The inoculated leaf segments are incubated at 19° C. and 75% rh under a light regime of 12 h light/12 h darkness in a climate cabinet and the activity of a compound is assessed as percent disease control compared to untreated when an appropriate level of disease damage appears in untreated check leaf segments (7-9 days after application).

[3] = tested on: Puccinia recondita f. sp. tritici; assay: Puccinia recondita f. sp. tritici / wheat / leaf disc curative (brown rust); assay type: in vivo; conditions: foliar, wheat leaf segments cv. Kanzler, applied 1 day after inoculation, assessed 6-8 days after application, read-out: control of Puccinia recondita f. sp. tritici compared to untreated control
Procedure: Leaf disks or leaf segments of various plant species are cut from plants grown in a greenhouse. The cut leaf disks or segments are placed in multiwell plates (24-well format) onto water agar. The leaf disks are sprayed with a test solution before (preventative) or after (curative) inoculation. Compounds to be tested are prepared as DMSO solutions (max. 10 mg/ml) which are diluted to the appropriate concentration with 0.025% Tween20 just before spraying. The inoculated leaf disks or segments are incubated under defined conditions (temperature, relative humidity, light, etc.) according to the respective test system. A single evaluation of disease level is carried out 3 to 14 days after inoculation, depending on the pathosystem. Percent disease control relative to the untreated check leaf disks or segments is then calculated. Wheat leaf segments cv. Kanzler are placed on agar in multiwell plates (24-well format). The leaf segments are inoculated with a spore suspension of the fungus. Plates are stored in darkness at 19° C. and 75% rh. The formulated test compound diluted in water is applied 1 day after inoculation. The leaf segments are incubated at 19° C. and 75% rh under a light regime of 12 h light/12 h darkness in a climate cabinet and the activity of a compound is assessed as percent disease control compared to untreated when an appropriate level of disease damage appears in untreated check leaf segments (6-8 days after application).

[4] = tested on: Glomerella lagenarium (Colletotrichum lagenarium); assay: Glomerella lagenarium (Colletotrichum lagenarium) liquid culture / cucumber / preventative (anthracnose); assay type: cell-based; conditions: Colletotrichum orbiculare, liquid culture in PDB, 24° C., 3-4 days after application, read-out: control of Glomerella lagenarium compared to untreated control (inhibition of growth, photometric)
Procedure: Mycelia fragments or conidia suspensions of a fungus prepared either freshly from liquid cultures of the fungus or from cryogenic storage, are directly mixed into nutrient broth. DMSO solutions of the test compound (max. 10 mg/ml) are diluted with 0.025% Tween20 by a factor of 50 and 10 μl of this solution is pipetted into a microtiter plate (96-well format). The nutrient broth containing the fungal spores/mycelia fragments is then added to give an end concentration of the tested compound. The test plates are incubated in the dark at 24° C. and 96% relative humidity. The inhibition of fungal growth is determined photometrically after 2 to 7 days, depending on the pathosystem, and percent antifungal activity relative to the untreated check is calculated. Conidia of the fungus from cryogenic storage are directly mixed into nutrient broth (PDB potato dextrose broth). After placing a (DMSO) solution of test compound into a microtiter plate (96-well format), the nutrient broth containing the fungal spores is added. The test plates are incubated at 24° C. and the inhibition of growth is measured photometrically 3-4 days after application.

[5] = tested on: Phakopsora pachyrhizi; assay: Phakopsora pachyrhizi / soybean / leaf disc preventative (Asian soybean rust); assay type: in vivo; conditions: foliar, soybean leaf disks, inoculated one day after application, assessed 12-14 days after application, read-out: control of Phakopsora pachyrhizi compared to untreated control
Procedure: Leaf disks or leaf segments of various plant species are cut from plants grown in a greenhouse. The cut leaf disks or segments are placed in multiwell plates (24-well format) onto water agar. The leaf disks are sprayed with a test solution before (preventative) or after (curative) inoculation. Compounds to be tested are prepared as DMSO solutions (max. 10 mg/ml) which are diluted to the appropriate concentration with 0.025% Tween20 just before spraying. The inoculated leaf disks or segments are incubated under defined conditions (temperature, relative humidity, light, etc.) according to the respective test system. A single evaluation of disease level is carried out 3 to 14 days after inoculation, depending on the pathosystem. Percent disease control relative to the untreated check leaf disks or segments is then calculated. Soybean leaf disks are placed on water agar in multiwell plates (24-well format) and sprayed with the formulated test compound diluted in water. One day after application leaf discs are inoculated by spraying a spore suspension on the lower leaf surface. After an incubation period in a climate cabinet of 24-36 hours in darkness at 20° C. and 75% rh leaf disc are kept at 20° C. with 12 h light/12 h darkness and 75% rh. The activity of a compound is assessed as percent disease control compared to untreated when an appropriate level of disease damage appears in untreated check leaf disks (12-14 days after application).

COC(=O)CN(OC)C(=O)c1ccc(-c2noc(C(F)(F)F)n2)cc1 [Compound 2.8, methyl 2-[methoxy-[4-[5-(trifluoromethyl)-1,2,4-oxadiazol-3-yl]benzoyl]amino]acetate]
≥ 80%: pest or weed control at 100 ppm [1] | pest or weed control at 200 ppm [2] | pest or weed control at 200 ppm [3] | inhibition at 20 ppm [4] | pest or weed control at 200 ppm [5]

CON(C)C(=O)c1ccc(-c2noc(C(F)(F)F)n2)cc1F [Compound 1.2, 2-fluoro-N-methoxy-N-methyl-4-[5-(trifluoromethyl)-1,2,4-oxadiazol-3-yl]benzamide]
≥ 80%: pest or weed control at 100 ppm [1] | pest or weed control at 200 ppm [2] | pest or weed control at 200 ppm [3] | pest or weed control at 200 ppm [5]

O=C(NO)c1ccc(-c2noc(C(F)(F)F)n2)cc1 [Compound 2.4, 4-[5-(trifluoromethyl)-1,2,4-oxadiazol-3-yl]benzenecarbohydroxamic acid]
≥ 80%: pest or weed control at 100 ppm [1] | pest or weed control at 200 ppm [2] | pest or weed control at 200 ppm [3] | inhibition at 20 ppm [4] | pest or weed control at 200 ppm [5]

CON(CC(=O)NC(C)(C)C)C(=O)c1ccc(-c2noc(C(F)(F)F)n2)cc1 [Compound 2.2, N-[2-(tert-butylamino)-2-oxo-ethyl]-N-methoxy-4-[5-(trifluoromethyl)-1,2,4-oxadiazol-3-yl]benzamide]
≥ 80%: pest or weed control at 100 ppm [1] | pest or weed control at 200 ppm [2] | pest or weed control at 200 ppm [3] | inhibition at 20 ppm [4] | pest or weed control at 200 ppm [5]

CON(Cc1ccccc1)C(=O)c1ccc(-c2noc(C(F)(F)F)n2)cc1 [Compound 2.5, N-benzyl-N-methoxy-4-[5-(trifluoromethyl)-1,2,4-oxadiazol-3-yl]benzamide]
≥ 80%: pest or weed control at 100 ppm [1] | pest or weed control at 200 ppm [2] | pest or weed control at 200 ppm [3] | inhibition at 20 ppm [4] | pest or weed control at 200 ppm [5]

C=CCN(OC)C(=O)c1ccc(-c2noc(C(F)(F)F)n2)cc1 [Compound 2.10, N-allyl-N-methoxy-4-[5-(trifluoromethyl)-1,2,4-oxadiazol-3-yl]benzamide]
≥ 80%: pest or weed control at 100 ppm [1] | pest or weed control at 200 ppm [2] | pest or weed control at 200 ppm [3] | inhibition at 20 ppm [4] | pest or weed control at 200 ppm [5]

CON(CC1CC1)C(=O)c1ccc(-c2noc(C(F)(F)F)n2)cc1F [Compound 1.8, N-(cyclopropylmethyl)-2-fluoro-N-methoxy-4-[5-(trifluoromethyl)-1,2,4-oxadiazol-3-yl]benzamide]
≥ 80%: pest or weed control at 100 ppm [1] | pest or weed control at 200 ppm [2] | pest or weed control at 200 ppm [3] | inhibition at 20 ppm [4] | pest or weed control at 200 ppm [5]

COC(=O)C1(N(O)C(=O)c2ccc(-c3noc(C(F)(F)F)n3)cc2F)CCN(OC)CC1 [Compound 1.5, methyl 4-[[2-fluoro-4-[5-(trifluoromethyl)-1,2,4-oxadiazol-3-yl]benzoyl]-hydroxy-amino]-1-methoxy-piperidine-4-carboxylate]
≥ 80%: pest or weed control at 100 ppm [1] | pest or weed control at 200 ppm [2] | pest or weed control at 200 ppm [3] | inhibition at 20 ppm [4] | pest or weed control at 200 ppm [5]

CON(CC=C(Cl)Cl)C(=O)c1ccc(-c2noc(C(F)(F)F)n2)cc1 [Compound 2.7, N-(3,3-dichloroallyl)-N-methoxy-4-[5-(trifluoromethyl)-1,2,4-oxadiazol-3-yl]benzamide]
≥ 80%: pest or weed control at 100 ppm [1] | pest or weed control at 200 ppm [2] | pest or weed control at 200 ppm [3] | inhibition at 20 ppm [4] | pest or weed control at 200 ppm [5]

C#CCN(OC)C(=O)c1ccc(-c2noc(C(F)(F)F)n2)cc1F [Compound 1.10, 2-fluoro-N-methoxy-N-prop-2-ynyl-4-[5-(trifluoromethyl)-1,2,4-oxadiazol-3-yl]benzamide]
≥ 80%: pest or weed control at 100 ppm [1] | pest or weed control at 200 ppm [2] | pest or weed control at 200 ppm [3] | inhibition at 20 ppm [4] | pest or weed control at 200 ppm [5]

CON(Cc1ccco1)C(=O)c1ccc(-c2noc(C(F)(F)F)n2)cc1F [Compound 1.7, 2-fluoro-N-(2-furylmethyl)-N-methoxy-4-[5-(trifluoromethyl)-1,2,4-oxadiazol-3-yl]benzamide]
≥ 80%: pest or weed control at 100 ppm [1] | pest or weed control at 200 ppm [2] | pest or weed control at 200 ppm [3] | inhibition at 20 ppm [4] | pest or weed control at 200 ppm [5]

C#CCN(OC)C(=O)c1ccc(-c2noc(C(F)(F)F)n2)cc1 [Compound 2.6, N-methoxy-N-prop-2-ynyl-4-[5-(trifluoromethyl)-1,2,4-oxadiazol-3-yl]benzamide]
≥ 80%: pest or weed control at 100 ppm [1] | pest or weed control at 200 ppm [2] | pest or weed control at 200 ppm [3] | inhibition at 20 ppm [4] | pest or weed control at 200 ppm [5]
